“And” between values parts separate entries of the source, which are not always exact repeats. Equal entries are not always repeated. Marks after values point to notes of the source that are not given here.
Experiments:
[1] = Pharmacokinetics and bioavailability in dogs, plasma determined by LC-MS; type: in vivo, dog
Description: A. The Pharmacokinetics of R-Oxiracetam In Vivo and Studies of Bioavailability
4 Determination Methods of Oxiracetam and R-Oxiracetam in Plasma by LC-MS
4.1 Chromatographic Conditions
Mobile phase: methanol: water (5:95)
Column: ZORBAX SB-Aq (2.1×100 mm 3.5μ)
Column temperature: 30° C.;
Injection volume: […] 4.2 Mass Spectrometry Detection Parameters
Mass spectrometry ionization method: electrospray ionization (ESI); ion polarity Positive; scanning mode for multiple reactions monitoring (MRM); scanning time of 100 ms. The ionic reactions used for quantitative analysis were m/z (oxiracetam) m/z 159.0→m/z 113.9 and m/z 143.1→m/z 126.0 (piracetam), respectively.
20 μL of the drug-containing the plasma sample is taken in a 1.5 mL Eppendorf tube. 20 μL of piracetam (20 μg/mL) of the internal standard solution is added, and mixed by the vortex mixer for 30s. Then, 500 μL of acetonitrile is added thereto, vortex shaken for 5 min and centrifugated at 16000 rpm for 10 min. The supernatant from the centrifugation was passed through 1 ml of SPE C 18E column and the filtrate was collected, put into 38° C. constant temperature water bath and dried by nitrogen gas. 300 μL of mobile phase was dissolved and the injection volume was 10 μL.
20 μL of blank dog plasma was added into the working solution prepared from the oxiracetam standard. The concentrations of oxiracetam in the plasma were 0.167, 0.33, 0.37, 1.33, 2.67, 4.0, 6.67, 13.33 and 26.67 μg/mL, respectively. A sample was made for each concentration respectively according to the procedures“4.4 Extraction of plasma samples”. The ratio of the peak area (As) of oxiracetam to the peak area (Ai) of the internal standard piracetam (f=As/Ai) were calculated, and perform linear regression using the concentration (C) to the ratio (f). The weight parameter 1/x, and the oxiracetam regression equation: y=5.2117X−0.76985 (r=0.9970, weight 1/x).
20 μL of blank dog plasma was added into the working solution prepared from the R-oxiracetam standard. The concentrations of R-oxiracetam in the plasma were 0.167, 0.33, 0.37, 1.33, 2.67, 4.0, 6.67, 13.33 and 26.67 μg/mL, respectively. A sample was made for each concentration respectively according to the procedures “4.4 Extraction of plasma samples”. The ratio of the peak area (As) of R-oxiracetam to the peak area (Ai) of the internal standard piracetam (f=As/Ai) were calculated, and perform linear regression using the concentration (C) to the ratio (f). The weight parameter 1/x, and the oxiracetam regression equation: y=1.6811X−0.031244(r=0.9949, weight 1/x).

[2] = system: lithium chloride-pilocarpine epilepsy model rat; test: Lithium chloride-pilocarpine rat epilepsy model, prophylactic administration; type: in vivo, SD rats; details: 120 mg/kg for 7 days before modeling, 10 rats
Excerpt: Stages: epileptic seizures evaluation are categorized by Racine Stages
Stage 0: no signs of any seizure;
Stage I: staring, head and face slightly trembling;
Stage II: head nodding or wet dog-like shaking;
Stage III: forelimb limit convulsions;
Stage IV: full-body ankylosing convulsions with a standing hind limb;
Stage V: full-body ankylosing clonic seizures with standing with fell;
Partial epilepsy seizure occurs when any one of Stage Ito Stage III appears;
Generalized epilepsy seizure occurs when Stage IV or Stage V appears;
Status epilepticus (SE) occurs when Stage IV or Stage V lasts 30 minutes.
The rat epilepsy models were treated with lithium chloride-pilocarpine and used levetiracetam as positive control. The duration of acute seizures of lithium chloride-pilocarpine epilepsy model rat was selected as the observation time, and prophylactic administration was used.
Animals were randomly divided into 4 groups, 10/group. Levetiracetam was selected as a positive control, 1.5 times of clinical dose were chosen, that is, 150 mg/kg. The clinical dose of an adult is 800 mg/times, twice daily, that is, 1600 mg/60 kg, 26.7 mg/kg. The dose of a rat is converted to 160 mg/kg according to body surface area. R-oxiracetam and levorotatory oxiracetam were selected half of the dose, that is, 80 mg/kg, and 1.5 times is 120 mg/kg. The dose was 1 ml/100 g, and the rats were treated with continuous administration for 7 days. As levetiracetam administration of 1.3 h (80 min), the plasma concentration peak, so we choose the last 80 minutes after the last administration of modeling. As administration of levetiracetam for 1.3 h (80 min), the plasma concentration peak was reached, so each group was selected after the last 80 minutes after the start of modeling.
Modeling method: After several previous test, the following modeling method was chosen: Animal ip. Lithium chloride 3 mmol/kg (1.5 ml/L) 127 mg/kg (12.7 mg/ml, 1 ml/100 g body weight), 24 h, 37.5 mg/kg pilocarpine three times ip. mg/kg (2.5 mg/ml, 0.5 ml/100 g body weight) at intervals of 10 minutes. […]

NC(=O)CN1C[C@H](O)CC1=O [R-oxiracetam, (R)-4-hydroxy-2-oxo-1-pyrrolidineacetamide]
Concentration in dog blood C ([1]; Time 0 h, individual dogs, one table per dog): 0 µg/mL
Concentration in dog blood C ([1]; Time 0.5 h, individual dogs, one table per dog): 30.41 µg/mL and 9.013 µg/mL and 51.07 µg/mL and 7.637 µg/mL and 33 µg/mL and 74.67 µg/mL
Concentration in dog blood C ([1]; Time 1 h, individual dogs, one table per dog): 50.8706 µg/mL and 35.55 µg/mL and 70.64 µg/mL and 48.19 µg/mL and 54.75 µg/mL and 112.1642 µg/mL
Concentration in dog blood C ([1]; Time 1.5 h, individual dogs, one table per dog): 110.2229 µg/mL and 37.88 µg/mL and 76.28 µg/mL and 74.56 µg/mL and 61.91 µg/mL and 58.53 µg/mL
Concentration in dog blood C ([1]; Time 6 h, individual dogs, one table per dog): 7.637 µg/mL and 14.07 µg/mL and 12.21 µg/mL and 4.648 µg/mL and 10.14 µg/mL and 4.409 µg/mL
Concentration in dog blood C ([1]; Time 8 h, individual dogs, one table per dog): 3.684 µg/mL and 4.731 µg/mL and 9.036 µg/mL and 2.318 µg/mL and 4.967 µg/mL and 2.215 µg/mL
Concentration in dog blood C ([1]; Time 12 h, individual dogs, one table per dog): 1.61 µg/mL and 1.913 µg/mL and 2.205 µg/mL and 1.4615 µg/mL and 3.568 µg/mL and 1.333 µg/mL
Concentration in dog blood C ([1]; Time 24 h, individual dogs, one table per dog): 0 µg/mL
concentration at 0 h ([1]; dog, plasma, Time 0 h, individual dogs, one table per dog, read-out: Concentration in dog blood C): 0 µg/mL
concentration at 4 h ([1]; dog, plasma, Time 4 h, individual dogs, one table per dog, read-out: Concentration in dog blood C): 18.4 µg/mL
concentration at 24 h ([1]; dog, plasma, Time 24 h, individual dogs, one table per dog, read-out: Concentration in dog blood C): 0 µg/mL
Cmax ([1]; dog, plasma, dogs, mean ± SD): 85.8 ± 20 µg/mL
Tmax ([1]; dog, plasma, dogs, mean ± SD): 2.04 ± 0.401 h
bioavailability ([1]; dog, plasma, dogs, with oxiracetam as a reference, read-out: relative bioavailability): 112 ± 11.6%
Latency Stage I [2]: 19.6 ± 4.4 min
Latency Stage II [2]: 34.7 ± 15.2 min
Latency Stage III [2]: 40.2 ± 12.1 min
Latency Stage IV [2]: 35.0 ± 2.8 min
Latency Stage V [2]: 38.0 ± 2.8 min
Number of Deaths [2]: 1
Number of SE Animals [2]: 2
Number of seizures Stage I [2]: 2.3 ± 1.2 times
Number of seizures Stage II [2]: 6.8 ± 3.7 times
Number of seizures Stage III [2]: 6.4 ± 3.6 times
Occurrence rate Stage I [2]: 10%
Occurrence rate Stage II [2]: 10%
Occurrence rate Stage III [2]: 5%
Occurrence rate Stage IV [2]: 2* %
Occurrence rate Stage V [2]: 2%
duration Stage IV [2]: 10.0 ± 1.4 min
duration Stage V [2]: 26.5 ± 0.7 min
number of animals having stage IV ([2]; P<0.05 vs model control): 20%
mortality rate ([2]; within 1 to 7 days after modeling): 10%

Source: patent US20180147183A1, “USE OF R-OXIRACETAM IN PHARMACEUTICAL FIELD” (Chongqing Runze Pharmaceutical Co., Ltd., priority 2015, published 2018)
